According to patent US20180250284A1, “QUINOLINE DERIVATIVES FOR USE IN TREATING LEUKODYSTROPHY AND TREATMENT METHOD” (GEORG-AUGUST-UNIVERSITÄT GÖTTINGEN STIFTUNG ÖFFENTLICHEN …, priority 2015, published 2018):

Experiments:
[1] = system: Cnp-Cre Pex5^fl/fl Rag1^−/− mice; assay: balanced beam test (motor coordination / walking ability); assay type: in vivo; details: 25 mg/kg oral gavage 6 out 7 days/week from age 6 weeks to month 6; vs H2O treated controls; significant from the age of 4 months
Description: Cnp-Cre Pex5^fl/fl Rag1^−/− mice received either H2O (Ctrl, n=18) or laquinimod (25 mg/kg, n=11) at 6 out 7 days/week by oral gavage. Treatment was initiated at the age of 6 weeks. Unpaired t test, **<0.01; ***<0.001. Cnp-Cre Pex5^fl/fl Rag1^−/− mice were generated by crossbreeding of Cnp-Cre Pex5^fl/fl mice with Rag1^−/− mice. Mice of both sexes received 25 mg/kg Laquinimod or water by oral gavage 6 out 7 days/week and treatment was initiated at the age of 6 weeks. Motor coordination was assessed with a balanced beam test. Mice were put on a beam (width 1.5 cm) and allowed to run toward a hiding box. After a training period, the time to pass a distance of 0.6 m was measured (three repeats per time point).

[2] = system: Cnp-Cre Pex5^fl/fl Rag1^−/− mice; assay: histological and morphological analyses of the corpus callosum at month 6; assay type: in vivo; details: 25 mg/kg oral; for extent of demyelination / myelin loss in the corpus callosum: luxol fast blue, vs vehicle/water treated mice
Description: FIG. 2: Quantification of axonal damage (APP), microglia/macrophage cell numbers (Mac3), demyelination and adult oligodendrocytes (NogoA) in the corpus callosum (CC) of CNP-Cre Pex^fl/fl RAG1^−/− mice at the age of 6 months. Cnp-Cre Pex5^fl/fl Rag1^−/− mice were generated by crossbreeding of Cnp-Cre Pex5^fl/fl mice with Rag1^−/− mice. Mice of both sexes received 25 mg/kg Laquinimod or water by oral gavage 6 out 7 days/week and treatment was initiated at the age of 6 weeks. Mice were perfused transcardially at month 6 with cold PBS followed by 4% paraformaldehyde (PFA). Brains and spinal cords were post-fixed for 2 days and then paraffin-embedded. Sections between 0.5-1 μm were cut and processed for immunohistochemistry (IHC) according to standard protocols. Demyelination was evaluated on sections stained with luxol fast blue (LFB). For the staining of macrophages the antibody MAC387 (mouse anti-L1 antibody MAC387, GeneTex, 1:150) was used. Axonal density was evaluated on Bielschowsky silver stained sections. That is, in order to identify the mechanisms how laquinimod is beneficial in the CNP-Cre Pex^fl/fl RAG1^−/− mouse model, we analyzed and quantified the extent of demyelination, axonal damage and macrophage and adult oligodendrocyte numbers in immunohistochemically stained sections of the corpus callosum at month 6 in laquinimod and vehicle treated mice. […] The extent of demyelination was diminished and the numbers of preserved adult oligodendrocytes were increased, see FIG. 2.

[3] = system: microglia cells stimulated with 1 μg/ml LPS and 5 mM ATP; assay: IL1β ELISA of supernatants of LPS/ATP stimulated microglia cells; assay type: cell-based; details: at high concentrations of laquinimod
Description: FIG. 3: Titration of laquinimod to microglia cells stimulated with 1 μg/ml LPS and 5 mM ATP. Microglia cell supernatants were analyzed for IL1β by ELISA.

[4] = system: Knockout mice (Cnp-Pex5, Cnp1-Cre*PEX5flox/flox, Pex5^flox/flox*Cnp-Cre/+, Nestin-Pex5, NEX-Pex5, GFAP-Pex5^−/−); assay: effect of various doses of laquinimod on Pex5 knockout mice; assay type: in vivo
Description: Knockout mice of one or more of the following strains are used: Cnp-Pex5, Cnp1-Cre*PEX5flox/flox, Pex5^flox/flox*Cnp-Cre/+, Nestin-Pex5, NEX-Pex5, and GFAP-Pex5^−/−.
The effect of various doses of laquinimod on knockout mice is assessed.

[5] = system: Patients with leukodystrophy; assay: trial of laquinimod in leukodystrophy human patients; assay type: in vivo; details: capsules orally once daily
Description: A trial is conducted to evaluate the safety, tolerability and clinical effect of laquinimod in leukodystrophy human patients. Patients with leukodystrophy are enrolled. The patient has been affirmatively diagnosed to have leukodystrophy. […] Capsule(s) containing laquinimod and/or matching placebo are administered orally once daily at dosages approved by the study Safety Committee. Patients are randomized into one of the treatment arms in a ratio that allows for reaching an overall target enrollment.

[6] = system: Patients with PBD; assay: trial of laquinimod for PBD in human patients; assay type: in vivo
Description: A trial is conducted to evaluate the safety, tolerability and clinical effect of laquinimod for PBD in human patients. Patients with PBD are enrolled. The patient has been affirmatively diagnosed to have PBD. […] Capsule(s) containing laquinimod and/or matching placebo are administered orally once daily at dosages approved by the study Safety Committee. Patients are randomized into one of the treatment arms in a ratio that allows for reaching an overall target enrollment.

[7] = in vivo; cited from earlier work
[8] = system: multiple sclerosis (MS) patients; details: two phase III trials; cited from earlier work
[9] = system: cuprizone model; details: cited from earlier work
[10] = system: EAE model; details: cited from earlier work
[11] = age of 6 months, vs vehicle treated mice
[12] = capsules orally once daily, human patients

SMILES: CCN(C(=O)c1c(O)c2c(Cl)cccc2n(C)c1=O)c1ccccc1 [laquinimod, 5-chloro-N-ethyl-4-hydroxy-1-methyl-2-oxo-N-phenyl-1,2-dihydroquinoline-3-carboxamide]
- walking ability / motor coordination on elevated beam test [1]: significantly better
- extent of demyelination / myelin loss in the corpus callosum ([2]; age of 6 months): less extensive
- extent of demyelination / myelin loss in the corpus callosum ([2]; age of 6 months, listed as Laquinimod): diminished
- axonal damage (APP positive axons) in the corpus callosum [2, 11]: significantly reduced
- microglia/macrophage cell numbers (Mac3) in the corpus callosum [2, 11]: significantly reduced
- numbers of preserved adult oligodendrocytes (NogoA) in the corpus callosum [2, 11]: increased
- microglia activation ([2]; vs water treated controls): reduced
- preservation of axons (axonal loss) ([2]; vs water treated controls): better preserved
- microglia activation ([2]; vs water treated controls, listed as Laquinimod): less abundant
- amount of IL1β in LPS stimulated microglia cell cultures [3]: significantly reduced
- accumulation of lipid droplets and VLCFA, depletion of plasmalogens, impairment of myelin, axonal degeneration, astrogliosis, and/or microgliosis [4]: reduces
- cognitive function [4]: improves
- hindlimb ataxia, kyphosis, hindlimb paresis, forelimb ataxia, tremor, hindlimb paralysis, and/or passiveness [4]: reduces
- motor function [4]: improves
- motor symptoms of leukodystrophy [5]: alleviates or eliminates
- one or more symptoms of leukodystrophy [5]: alleviates or eliminates
- motor symptoms of PBD [6, 12]: alleviates or eliminates
- one or more symptoms of PBD [6, 12]: alleviates or eliminates
- symptoms of Zellweger Syndrome (ZS) ([6]; humans, Example 3.1): alleviates or eliminates
- symptoms of Neonatal Adrenoleukodystrophy (NALD) ([6]; humans, Example 3.2): alleviates or eliminates
- symptoms of Infantile Refsum Disease (IRD) ([6]; humans, Example 3.3): alleviates or eliminates
- oral bioavailability [7]: high
- safety and tolerability profile [8]: favorable
- demyelination [9]: reduces
- microglia and astrocyte activation [9]: inhibits
- axonal injury [10]: reduces
- microglia and astrocyte activation [10]: inhibits
